Reference: patent publication US9149465B2, “Isoxazolines as inhibitors of fatty acid amide hydrolase” (Infinity Pharmaceuticals, Inc., priority 2009, dated 2015)
pKi: −log10 of the molar value.

target: T1, human FAAH (Homo sapiens, UniProt O00519); experiment: Inhibition of human FAAH (AMC arachidonoyl amide fluorescence assay); format: biochemical; details: inhibitor preincubated 30 minutes at room temperature; 20 μM AMC arachidonoyl amide; 4 hours; read-out: Activity (Ki, inhibitors of human FAAH)
T1 construct: host or cells: COS-7 cells, transient transfection; 13,000 g membrane fraction solubilised in 1% Triton X-100
T1 sequence (O00519 1-579): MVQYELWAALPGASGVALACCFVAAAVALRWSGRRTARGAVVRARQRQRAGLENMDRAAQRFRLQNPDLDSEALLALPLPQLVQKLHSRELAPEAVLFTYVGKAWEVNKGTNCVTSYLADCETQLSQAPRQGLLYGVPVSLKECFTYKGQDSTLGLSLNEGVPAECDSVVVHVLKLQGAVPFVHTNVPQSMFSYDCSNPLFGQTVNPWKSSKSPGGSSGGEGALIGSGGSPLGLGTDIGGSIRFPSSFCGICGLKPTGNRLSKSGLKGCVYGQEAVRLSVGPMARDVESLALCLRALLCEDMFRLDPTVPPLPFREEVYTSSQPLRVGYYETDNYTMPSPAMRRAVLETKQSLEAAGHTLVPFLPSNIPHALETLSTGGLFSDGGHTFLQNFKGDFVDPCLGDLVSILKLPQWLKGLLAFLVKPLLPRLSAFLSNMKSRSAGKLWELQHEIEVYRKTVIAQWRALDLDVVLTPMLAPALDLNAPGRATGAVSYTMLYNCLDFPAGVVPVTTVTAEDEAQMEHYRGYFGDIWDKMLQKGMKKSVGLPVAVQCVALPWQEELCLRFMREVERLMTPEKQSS
Procedure: Human FAAH Preparation: COS-7 cells were split the day before, 1:5 into 150 mm x […] cell culture dishes (Corning Inc., Cat. No. 430599). Transient transfection took place at 30-40% confluency according to FuGENE 6 Transfection Reagent (Roche, Cat. No. 11814 443 001).
Transfection Procedure: The FuGENE transfection 6 reagent (45 uL) was added to 1410 μL of media (DMEM, serum free without pen/strep) in a 15 mL conical tube and incubated at room temp for 5 minutes, followed by the addition of FAAH plasmid DNA (15 μg) (OriGene Cat. No. TC119221, Genbank Accession No. NM_001441.1, 0.67 ug/uL) and a further incubation of 15 minutes at room temperature. The resulting solution was added into one dish of 30-40% confluent COS-7 cells in a drop-wise manner. The COS-7 cell dish was subsequently incubated for 48 hours. The cells are then harvested.
Harvest procedure: Media was aspirated from the dishes and the cells rinsed with 10 mL PBS. The PBS was removed and 3 mL of PBS added to the dish. The dish was scraped to resuspend the cells, and the subsequent cell suspension collected into a 15 mL conical tube. The cells were pelleted by centrifugation at 1200 rpm for 5 minutes in a bench top centrifuge. PBS was removed and the cell pellet snap frozen in liquid nitrogen and stored at −80° C.
COS-7 cells —FAAH purification: • (1) Fractionation: Frozen cell pellets from transient transfections were thawed on ice and resuspended in 12.5 mM Hepes pH 8.0, 100 mM NaCl, 1 mM EDTA (10 mL/0.2 g cell pellet). The pellets were dounce homogenized and then sonicated to produce cell extract. The cell extract was subsequently centrifuged at 1000 g to remove cellular debris. The pellet was discarded and the supernatant centrifuged at 13,000 g for 20 minutes. The pellet contained membrane bound FAAH. The supernatant was discarded and the pellet resolubilized. • (2) Re-solubilization: The fraction of interest, (13,000 g, membrane fraction) was re-suspended in 2.3 mL re-suspension buffer (20 mM Hepes pH 7.8, 10% v/v Glycerol, 1 mM EDTA, 1% Triton X-100) and the sample incubated on ice for 1 hour and then centrifuged to remove any particulate matter. The supernatant containing solubilized human FAAH was aliquoted and snap frozen in liquid nitrogen and stored at −80° C. until use. • (3) Characterization: Protein Concentration determined by Bradford assay. • SDS gel and Western blot to confirm presence of FAAH • FAAH activity assay • Km determination-96-well assay • Linear dependence—96-well assay • Standard compound Ki determination—384-well assay
Human FAAH assay; Experimental Protocol: A 0.1 mg/mL Human FAAH solution was made up in FAAH reaction buffer, and 24 ul pipeted into a 384 well plate. To this was added 1 μL of a 3 fold serially diluted inhibitor from a DMSO stock solution. The FAAH solution and inhibitor were incubated for 30 minutes at room temperature. The FAAH reaction was initiated by the addition of 25 μL of 40 μM AMC Arachidonoyl Amide in FAAH reaction buffer, yielding a final reaction human FAAH preparation concentration of 0.05 mg/ml and AMC-Arachidonoyl substrate concentration of 20 μM, reaction volume 50 μL. The reaction was allowed to proceed for 4 hours at room temperature. The reaction was stopped by the addition of 25 μL 12 μM a-ketoheterocycle (Cayman Chemicals, catalogue #10435). The microtiter plate was read in the envision plate reader.
The raw fluorescence was plotted on the y axis and the inhibitor concentration on the x axis to give a dose response inhibition curve. The data was fitted to a single site competitive inhibition equation, fixing the Km for the human enzyme to 12 μM and 9 μM respectively.

Structure (SMILES) | pKi
FC(F)(F)Oc1ccc(C2CC(Oc3ccc(-c4ncco4)nc3)=NO2)cc1 (racemic) [I-163] | ≥ 7.00
CC1(c2ccc(OC(F)(F)F)cc2)CC(Oc2ccc(-c3nccs3)nc2)=NO1 (racemic) [I-164] | ≥ 7.00
FC(F)(F)Oc1ccc(C2CC(Oc3ccc(-c4cn[nH]c4)nc3)=NO2)cc1 (racemic) [I-165] | ≤ 6.00
c1ccc(C2CC(Oc3cncnc3)=NO2)cc1 (racemic) [I-166] | 6.00 to 7.00
CC1(c2ccc(OC(F)(F)F)cc2)CC(Oc2ccc(S(C)(=O)=O)nc2)=NO1 (racemic) [I-167] | ≥ 7.00
FC(F)(F)c1ccc(C2CC(Oc3cncnc3)=NO2)cc1 (racemic) [I-168] | 6.00 to 7.00
CS(=O)(=O)c1ccc(OC2=NOC(c3ccc(C(F)(F)F)cc3)C2)cn1 (racemic) [I-169] | ≥ 7.00
O=C(O)c1ccc(OC2=NOC(c3ccc(C(F)(F)F)cc3)C2)cn1 (racemic) [I-170] | ≥ 7.00
CC1(c2ccc(OC(F)(F)F)cc2)CC(n2cnc(C(=O)O)n2)=NO1 (racemic) [I-171] | ≤ 6.00
CC1(c2ccc(OC(F)(F)F)cc2)CC(Oc2cc3ccccn3n2)=NO1 (racemic) [I-172] | ≤ 6.00
FC(F)(F)Oc1ccc(C2CC(Oc3ccc(-c4ccc[nH]4)nc3)=NO2)cc1 (racemic) [I-173] | ≥ 7.00
FC(F)(F)Oc1ccc(C2CC(Oc3cccc(-c4nnn[nH]4)c3)=NO2)cc1 (racemic) [I-174] | 6.00 to 7.00
FC(F)(F)Oc1ccc(C2CC(Oc3ccc(-c4nnn[nH]4)cc3)=NO2)cc1 (racemic) [I-175] | 6.00 to 7.00
O=C(O)c1cccc(OC2=NOC(c3ccc(OC(F)(F)F)cc3)C2)c1 (racemic) [I-176] | ≤ 6.00
O=C(O)c1ccc(OC2=NOC(c3ccc(OC(F)(F)F)cc3)C2)cc1 (racemic) [I-177] | 6.00 to 7.00
N#Cc1ccc(OC2=NOC(c3ccc(OC(F)(F)F)cc3)C2)cn1 (racemic) [I-178] | 6.00 to 7.00
CCCCc1ccc([C@H]2CC(Oc3cncnc3)=NO2)cc1 (racemic) [I-180] | ≥ 7.00

Structure (SMILES) | pKi
CCCCc1ccc(C2CC(Oc3ccc(S(C)(=O)=O)nc3)=NO2)cc1 (racemic) [I-181] | ≥ 7.00
CCS(=O)(=O)c1ccc(OC2=NOC(c3ccc(OC(F)(F)F)cc3)C2)cn1 (racemic) [I-182] | ≥ 7.00
O=S(=O)(c1ccc(OC2=NOC(c3ccc(OC(F)(F)F)cc3)C2)cn1)C1CCCC1 (racemic) [I-183] | 6.00 to 7.00
CC(C)CS(=O)(=O)c1ccc(OC2=NOC(c3ccc(OC(F)(F)F)cc3)C2)cn1 (racemic) [I-184] | 6.00 to 7.00
CC1(c2ccc(OC(F)(F)F)cc2)CC(Oc2ccc(-c3ncco3)nc2)=NO1 (racemic) [I-185] | ≥ 7.00
FC(F)(F)Oc1ccc(C2CC(Oc3ccc(-c4ccco4)nc3)=NO2)cc1 (racemic) [I-186] | ≥ 7.00
Cc1ccc(-c2ccc(OC3=NOC(c4ccc(OC(F)(F)F)cc4)C3)cn2)o1 (racemic) [I-187] | ≥ 7.00
O=C(O)c1ccc(-c2ccc(OC3=NOC(c4ccc(OC(F)(F)F)cc4)C3)cn2)o1 (racemic) [I-188] | ≤ 6.00
Cn1nccc1-c1ccc(OC2=NOC(c3ccc(OC(F)(F)F)cc3)C2)cn1 (racemic) [I-189] | ≥ 7.00
Cc1cc(-c2ccc(OC3=NOC(c4ccc(OC(F)(F)F)cc4)C3)cn2)n(C)n1 (racemic) [I-190] | ≥ 7.00
Cn1nc(C(F)(F)F)cc1-c1ccc(OC2=NOC(c3ccc(OC(F)(F)F)cc3)C2)cn1 (racemic) [I-191] | ≤ 6.00
FC(F)(F)Oc1ccc(C2CC(Oc3ccc(-c4ccn[nH]4)nc3)=NO2)cc1 (racemic) [I-192] | ≥ 7.00
O=C(O)c1ccc(-c2ccc(OC3=NOC(c4ccc(OC(F)(F)F)cc4)C3)cn2)s1 (racemic) [I-193] | 6.00 to 7.00
FC(F)(F)Oc1ccc(C2CC(Oc3ccc(-c4cnoc4)nc3)=NO2)cc1 (racemic) [I-194] | ≥ 7.00
FC(F)(F)Oc1ccc(C2CC(Oc3ccc(-c4nnn[nH]4)nc3)=NO2)cc1 (racemic) [I-195] | ≥ 7.00
CCS(=O)(=O)c1ccc(OC2=NOC(C)(c3ccc(OC(F)(F)F)cc3)C2)cn1 (racemic) [I-196] | ≥ 7.00
